Assay results published in patent EP4707393A1, “DOUBLE-STRANDED SIRNA, CONJUGATE THEREOF AND USE THEREOF” (CMS Research & Development Pte. Ltd., priority 2023, dated 2024).

Key:
[1] = test system: LPA mRNA; assay: In vivo efficacy in LPA-HDI mouse model (liver LPA mRNA); set-up: species or system BALB/c mouse; conditions: 3 mg/kg single subcutaneous injection, Day 14, relative to PBS blank group, 4 mice per group
Experimental: The knockdown effect of the test double-stranded siRNA conjugate on the target gene LPA upon entry into the mouse is evaluated by rapid high-pressure injection of the physiological saline containing recombinant plasmid pcDNA-LPA carrying the target gene via the tail vein.
pcDNA-LPA plasmid, BALB/c mouse, PBS (phosphate buffer), and conjugates of the present invention.
Six-week-old female BALB/c mice were ordered and acclimated/quarantined for three days upon arrival in the animal room.
On Day 0, the mice were randomly grouped based on body weight data. After grouping, all mice were given a single administration via subcutaneous injection, with a dose volume of 10 mL/kg. Mice in Group 1 received PBS; mice in the other groups received the conjugates (dissolved in PBS).
On Day 13 post-administration, all mice were injected with normal saline containing the pcDNA-LPA plasmid via the tail vein within 5 seconds. The injection volume (mL) = mouse body weight (g) × 8%. The amount of plasmid injected per mouse was 10 µg.
On Day 14 post-administration, all groups of mice were euthanized by CO2 inhalation, and 2 liver samples were collected from each mouse. Liver samples were treated overnight with RNAlater at 4 °C, then RNAlater was removed, and stored at -80 °C for detection of LPA gene expression levels.

[2] = test system: human LPA gene (Genbank number: NM_005577.4); assay: Inhibitory activity against LPA mRNA, psiCHECK-2 dual-luciferase reporter vector in Huh7 cells; format: cell-based; conditions: Huh7 cells transfected with LPA_psiCHECK-2 plasmid, RNAiMAX transfection
In short: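 Huh7 cells transfected with psiCHECK-2 carrying human LPA, then treated next day with compounds (3 concentrations) delivered by RNAiMAX. Dual-Glo readout of firefly and Renilla luciferase per well. Percent inhibition calculated from the reporter ratio relative to the RNAiMAX control.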

| Substance | % Downregulation of LPA mRNA [1] [%] | EC50 [2] [nM] |
| --- | --- | --- |
| Z34: siRNA conjugate: sense SEQ ID NO:48, ligand D18 at 3' end of sense strand, antisense SEQ ID NO:73 (sense CAGCCCCTTATTGTTANACGA; antisense TCGTATNACAATAAGGGGCNGTT; ligand D18 at sense 3' end; listed as RNA; modified_base 1: mod_base = OTHER; note = 2'-O-methylcytidine; modified_base 2: mod_base = OTHER; note = 2'-O-methyladenosine; modified_base 3: mod_base = OTHER; note = 2'-O-methylguanosine; modified_base 4..6: mod_base = OTHER; note = 2'-O-me; note = E-type vinylphosphonate-modified 2'-O-methyluridine; note = 2'-fluorocytidine; modified_base 4: mo) | 78.1 | 3.05 |
| Z35: siRNA conjugate: sense SEQ ID NO:49, ligand D18 at 3' end of sense strand, antisense SEQ ID NO:74 (sense CAGCCCCTTATTGTTATACGA; antisense TCGTATNACAATAAGGGGCNGTT; ligand D18 at sense 3' end; listed as RNA; modified_base 1: mod_base = OTHER; note = 2'-O-methylcytidine; modified_base 2: mod_base = OTHER; note = 2'-O-methyladenosine; modified_base 3: mod_base = OTHER; note = 2'-O-methylguanosine; modified_base 4..7: mod_base = OTHER; note = 2'-O-me; note = E-type vinylphosphonate-modified 2'-O-methyluridine; note = 2'-deoxycytidine; modified_base 4: mod) | 92.3 | 0.14 |
| Z33: siRNA conjugate: sense SEQ ID NO:47, ligand D18 at 3' end of sense strand, antisense SEQ ID NO:72 (sense GCCCCTTATTGTTANACGA; antisense TCGTATNACAATAAGGGGCTGT; ligand D18 at sense 3' end; listed as RNA; modified_base 1: mod_base = OTHER; note = 2'-O-methylguanosine; modified_base 2: mod_base = OTHER; note = 2'-O-methylcytidine; modified_base 3..5: mod_base = OTHER; modified_base 6: mod_base = OTHER; note = 2'-O-met; note = E-type vinylphosphonate-modified 2'-O-methyluridine; note = 2'-fluorocytidine; modified_base 3: mod_base = OTHER; modified_base 4: mo) | 79.2 |  |
| Z27: siRNA conjugate: sense SEQ ID NO:43, ligand D18 at 3' end of sense strand, antisense SEQ ID NO:66 (sense CAGCCCCTTATTGTTANACGA; antisense TCTCGTATNACAATAAGGGGCTG; ligand D18 at sense 3' end; listed as RNA; modified_base 1: mod_base = OTHER; note = 2'-O-methylcytidine; modified_base 2: mod_base = OTHER; note = 2'-O-methyladenosine; modified_base 3: mod_base = OTHER; note = 2'-O-methylguanosine; modified_base 4..7: mod_base = OTHER; note = 2'-O-me; note = 2'-O-methyluridine; modified_base 4: mod_base = OTHER; note = 2'-fluorocytidine; modified_base 5: mod_base = OTHER; note = 2'-O-methylg) | 92.2 | 0.96 |
| Z32: siRNA conjugate: sense SEQ ID NO:47, ligand D18 at 3' end of sense strand, antisense SEQ ID NO:71 (sense GCCCCTTATTGTTANACGA; antisense TCGTATNACAATAAGGGGCTGT; ligand D18 at sense 3' end; listed as RNA; modified_base 1: mod_base = OTHER; note = 2'-O-methylguanosine; modified_base 2: mod_base = OTHER; note = 2'-O-methylcytidine; modified_base 3..5: mod_base = OTHER; modified_base 6: mod_base = OTHER; note = 2'-O-met; note = E-type vinylphosphonate-modified 2'-O-methyluridine; note = 2'-fluorocytidine; modified_base 3: mod_base = OTHER; modified_base 4: mo) | 86.4 | 0.21 |
